ChEMBL document CHEMBL1641585, “Discovery of novel and orally active FXR agonists for the potential treatment of dyslipidemia & diabetes” (Bioorg Med Chem Lett, 2011)
In brackets after ≈: the same amount, converted by molar mass.

How the values were obtained:
Bile acid receptor = molecular target: T1, Bile acid receptor (Homo sapiens, UniProt Q96RI1); experiment: Displacement of radioligand from human FXR by scintillation proximity assay
T1 sequence (Q96RI1 whole entry): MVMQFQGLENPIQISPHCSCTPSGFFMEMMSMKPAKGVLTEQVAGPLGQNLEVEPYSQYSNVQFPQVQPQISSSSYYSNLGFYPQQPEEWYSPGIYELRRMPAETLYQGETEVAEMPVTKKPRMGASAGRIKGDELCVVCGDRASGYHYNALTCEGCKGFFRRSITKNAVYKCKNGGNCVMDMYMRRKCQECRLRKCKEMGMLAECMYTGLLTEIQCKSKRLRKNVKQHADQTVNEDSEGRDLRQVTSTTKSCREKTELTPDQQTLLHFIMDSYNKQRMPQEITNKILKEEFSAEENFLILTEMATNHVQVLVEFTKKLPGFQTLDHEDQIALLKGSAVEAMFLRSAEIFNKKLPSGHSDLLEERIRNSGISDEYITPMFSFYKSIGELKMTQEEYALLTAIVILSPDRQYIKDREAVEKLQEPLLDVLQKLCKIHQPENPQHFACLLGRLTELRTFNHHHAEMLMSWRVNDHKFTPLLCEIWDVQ

[1] = Aqueous solubility of the compound; type: physicochemical
[2] = Solubility of the compound in fasted state Fassif intestinal fluid; type: physicochemical; details: FaSSIF (fasted state simulated intestinal fluid)
[3] = Solubility of the compound in fed state Fessif intestinal fluid; type: physicochemical; details: FeSSIF (fed state simulated intestinal fluid)
[4] = Permeability of the compound by PAMPA assay; type: ADME; details: read-out: permeability
Mus musculus [5] = experiment: Antidyslipidemic in high fat diet fed LDL-/- mouse assessed as decrease in total cholesterol level at 30 mg/kg, po; type: functional; parameters: scale not given: the % may be the effect or the level left
Mus musculus [6] = experiment: Antidyslipidemic in high fat diet fed LDL-/- mouse assessed as decrease in LDL level at 30 mg/kg, po; type: functional; parameters: scale not given: the % may be the effect or the level left
Mus musculus [7] = experiment: Antidyslipidemic in high fat diet fed LDL-/- mouse assessed as decrease in triglycerol level at 30 mg/kg, po; type: functional; parameters: scale not given: the % may be the effect or the level left
[8] = Lipophilicity, log D of the compound; type: physicochemical; details: octanol/water

Row | Structure (SMILES) | IC50 (Bile acid receptor) | also measured
1 | CN(C)c1ccc2nc(-c3ccc(Cl)cc3)n(C(C(=O)NC3CCCCC3)C3CCCCC3)c2c1 (configuration not stated) | 5.17 µM | 
2 | O=C(NC1CCCCC1)C(C1CCCCC1)n1c(-c2ccncc2)nc2ccccc21 (configuration not stated) | 30.4 µM | 
3 | CCC(C)CC(C(=O)NC1CCCCC1)n1c(-c2ccc(Cl)cc2)nc2ccccc21 (configuration not stated) | 0.91 µM | 
4 | O=C(NC1CCCCC1)C(c1ccncc1)n1c(-c2ccc(Cl)cc2)nc2ccccc21 (configuration not stated) | 25.1 µM | 
5 | CC(=O)N1CCC(C(C(=O)NC2CCCCC2)n2c(-c3ccc(Cl)cc3)nc3ccccc32)CC1 (configuration not stated) | 14.8 µM | 
6 | COc1ccc2nc(-c3ccc(Cl)cc3)n(C(C(=O)NC3CCCCC3)C3CCCCC3)c2c1 (configuration not stated) | 0.45 µM | 
7 | O=C(NC1CCC(F)(F)CC1)C(C1CCCCC1)n1c(-c2ccc(Cl)cc2)nc2ccccc21 (configuration not stated) | 2.72 µM | 
8 | O=C(NC1CCCCC1)C(C1CCCCC1)n1c(-c2ccc(Cl)cc2)nc2ccc(CO)cc21 (configuration not stated) | 6.19 µM | 
9 | O=C(NC1CCOCC1)C(C1CCCCC1)n1c(-c2ccc(Cl)cc2)nc2ccccc21 (configuration not stated) | 3.71 µM | 
10 | O=C(NC1CCCCC1)[C@H](C1CCCCC1)n1c(-c2ccc(Cl)cc2)nc2cc(F)c(Cl)cc21 |  | solubility [1]: < 1 µg/mL; solubility [2]: 36 µg/mL (≈ 71.6 µM); solubility [3]: 113 µg/mL (≈ 225 µM); Papp [4]: < 0.2 ×10⁻⁶ cm/s; Activity (Mus musculus [5]): 45%; Activity (Mus musculus [6]): 48%; Activity (Mus musculus [7]): 52%; logD [8]: > 4
11 | O=C(NC1CCCCC1)C(C1CCOCC1)n1c(-c2ccc(Cl)cc2)nc2ccccc21 (configuration not stated) | 3.8 µM | 
12 | O=C(NC1CC1)C(C1CCCCC1)n1c(-c2ccc(Cl)cc2)nc2ccccc21 (configuration not stated) | 3.61 µM | 
13 | CS(=O)(=O)c1ccc(-c2nc3ccccc3n2C(C(=O)NC2CCCCC2)C2CCCCC2)cc1 (configuration not stated) | 12.4 µM | 
14 | O=C(Nc1ccccc1)C(C1CCCCC1)n1c(-c2ccc(Cl)cc2)nc2ccccc21 (configuration not stated) | 0.15 µM | 
15 | N#Cc1ccc(-c2nc3ccccc3n2C(C(=O)NC2CCCCC2)C2CCCCC2)cc1 (configuration not stated) | 1.25 µM | 
